Laboratory results as given in patent US12583938B2, “Protein biomarker and uses thereof” (Daiichi Sankyo Co., Ltd., priority 2013, dated 2026).
“Also recorded” adds a separate entry of the source. Read-outs that look alike come from different tables or passages of the source.

How the values were obtained:
[1] = tested on: HER3 phosphorylation in CaOV3 cells; test: in vitro reduction of phospho-HER3 and phospho-AKT levels by Western blotting; format: cell-based, human; conditions: CaOV3, no basal HER3 activation, stimulated with exogenous heregulin; FIG. 9
Procedure: (§1) FIG. 9 depicts efficacy determined in vitro by measuring reduction of phospho-HER3 and phospho-AKT levels by Western blotting.
(§2) U3-1287 efficacy was determined in vitro by measuring reduction of phospho-HER3 and phospho-AKT levels.

[2] = tested on: HER3 phosphorylation in A549 cells; test: as above; format: cell-based, human; conditions: A549, endogenously express heregulin; FIG. 9
Procedure: as §1, §2

Stage IIIb/IV NSCLC [3] = conditions: Phase 1b, 150 mg erlotinib daily + 18 mg/kg patritumab every 3 weeks, 7 subjects
Procedure: (§3) In both portions of the study, subjects received 150 mg of erlotinib orally once daily. […] Tumors were to be assessed every 6 weeks (±3 days) up to the first 24 weeks of the study, then every 12 weeks (±7 days) independent of treatment cycle.

A375 = test: human cancer xenograft in mice, tumor growth inhibition; format: in vivo; conditions: Melanoma, HRG (WB) −
Procedure: (§4) The HRG biomarker was identified by analysing the anti-tumor activity of the anti-HER3 antibody U3-1287 on various human cancer xenografts in vivo and analysis of the expression of HRG of these cell lines in vitro. Human tumor cell lines of various indications were grown as xenografts in mice and treated with the anti-HER3 antibody U3-1287 for several weeks. Inhibition of tumor growth was analysed by comparing the tumor volumes of control mice and mice treated with U3-1287. Human tumor cell lines were grown in vitro and analysed for HRG protein expression by Western blotting.

HCC 1569 = test: as above; format: in vivo; conditions: HCC 1569 xenograft, BC FISH + ve, HRG (WB) −
Procedure: as §4

HT-144 = test: as above; format: in vivo; conditions: HT-144 xenograft, Melanoma, HRG (WB) −
Procedure: as §4

NC-H1975 = test: as above; format: in vivo; conditions: NSCLC, HRG (WB) +
Procedure: as §4

HT-29 = test: as above; format: in vivo; conditions: HT-29 xenograft, Colon, HRG (WB) −
Procedure: as §4

MDA-MB453 = test: as above; format: in vivo; conditions: BC FISH + ve, HRG (WB) −
Procedure: as §4

BxPC3 = test: as above; format: in vivo; conditions: Pancreas, HRG (WB) +
Procedure: as §4

ZR75-1 = test: as above; format: in vivo; conditions: ZR75-1 xenograft, BC FISH + ve, HRG (WB) −
Procedure: as §4

MCF-7 = test: as above; format: in vivo; conditions: MCF-7 xenograft, BC FISH + ve, HRG (WB) −
Procedure: as §4

BT474 = test: as above; format: in vivo; conditions: BC FISH + ve, HRG (WB) −
Procedure: as §4

Calu-3 = test: as above; format: in vivo; conditions: Calu-3 xenograft, NSCLC, HRG (WB) +
Procedure: as §4

MKN-45 = test: as above; format: in vivo; conditions: MKN-45 xenograft, Gastric, HRG (WB) −
Procedure: as §4

Sum225 = test: as above; format: in vivo; conditions: BC FISH + ve, HRG (WB) −
Procedure: as §4

FaDu = test: as above; format: in vivo; conditions: Head&Neck, HRG (WB) +
Procedure: as §4

A549 = test: as above; format: in vivo; conditions: NSCLC, HRG (WB) +
Procedure: as §4

NCI-H441 = test: as above; format: in vivo; conditions: NSCLC, HRG (WB) −
Procedure: as §4

[4] = tested on: HER3 phosphorylation in BT474 cells; test: in vitro HER3 phosphorylation by Western blotting; format: cell-based, human; conditions: FIG. 10
Procedure: FIG. 10 depicts Western blots showing that U3-1287 can block […] basal HER3 phosphorylation.
as §2

Stage IIIb/IV NSCLC [5] = conditions: for OS: Subjects (%) with events / OS: Subjects (%) without events (censored) / PFS: Subjects (%) with events / PFS: Subjects (%) without events (censored) / Progression-Free Survival, Time to event, Median / Overall Survival, Time to event, Median: Full Analysis Set; for Progression-Free Survival, Time to event, Median / Overall Survival, Time to event, Median: Kaplan-Meier Estimate; for Overall Survival, Time to event, Median: preliminary; for On-Study Death / Primary Cause of On-Study Death: Adverse Event / Primary Cause of On-Study Death: Disease Progression / Primary Reason for Discontinuing Study Treatment: Adverse Event / Primary Reason for Discontinuing Study Treatment: Death / Primary Reason for Discontinuing Study Treatment: Progressive Disease (Radiographic Progression): Enrolled/Randomized Analysis Set; for HR for PFS (pooled dose vs placebo): soluble HRG high group, + erlotinib
Procedure: as §3
An “HRG high” subject was defined as a subject with observed soluble HRG concentration of higher than 980 pg/mL, the Quartile 3 of the sample set. Soluble HRC concentration was measured by the improved ELISA method disclosed herein.
At the point of primary analysis, the treatment assignment for all subjects was unblinded to designated study personnel for analysis after data were reconciled and cleaned, and a snapshot of the clean database was created. To minimize potential bias, individual treatment assignment was not divulged to subjects or Investigators until study closure.
All efficacy analyses were performed on the full analysis set, which includes all subjects in the randomized analysis set who received at least one dose of randomized study medication. The primary efficacy endpoint was PFS. PFS is defined as the time from the date of randomization to the earlier of the dates of the first objective documentation of radiographic disease progression or death due to any cause. A subject who was alive with no objective documentation of (radiographic) disease progression by the data cut-off date was to be censored at the date of the last evaluable tumor assessment. The key secondary efficacy endpoint, overall survival, was defined as the time from the date of randomization to death due to any cause and was analyzed in the same manner as the primary efficacy endpoint PFS.
Kaplan-Meier curves were generated for PFS and used to calculate medians and 95% CIs for each treatment group.
The stratification factors included histology (Adenocarcinoma vs Non-Adenocarcinoma) and best response to prior therapy (CR/PR/SD vs PD). […] Cox's proportional hazards model with the same stratification factors used for the stratified log-rank test.
Unless otherwise indicated, tog-rank p-values and HRs for PFS and OS were based on the primary analysis adjusted for the stratification factors at randomization as described above.

[6] = monotherapy Phase 1 study of patritumab; format: in vivo
Procedure: A higher maintenance dose level of 18 mg/kg was also included to accommodate the possible effect of reduced tumor tissue penetration in the clinical setting relative to animal models.

[7] = 9 mg/kg patritumab + erlotinib (N = 71)
[8] = 9 mg/kg patritumab + erlotinib (N = 72)
[9] = 18 mg/kg patritumab + erlotinib (N = 70)
[10] = 18 mg/kg patritumab + erlotinib (N = 72)

For patritumab, the HER3 phosphorylation [1] was “could be blocked”, the “Basal HER3 phosphorylation” value [2] was “could be blocked” and the “AEs grade≥3, number of subjects” value (Stage IIIb/IV NSCLC [3]) was 2 subjects. For the same substance, the “patritumab-related AE reported in ≥2 subjects” value (Stage IIIb/IV NSCLC [3]) was “decreased appetite”, the “relation of grade≥3 AEs to patritumab” value (Stage IIIb/IV NSCLC [3]) was “none were related to patritumab” and the tumor response (Stage IIIb/IV NSCLC [3]) was “No response was recorded”. The DLTs (Stage IIIb/IV NSCLC [3]; 18 mg/kg) was “no DLTs were seen; also recorded: No DLTs were reported”, the “subjects with serious AEs” value (Stage IIIb/IV NSCLC [3]; four serious AEs) was “Three” and the “In vivo efficacy (SA)” value (A375) was “No”. For the same substance, the “In vivo efficacy (SA)” value (HCC 1569) was “No”, the “In vivo efficacy (SA)” value (HT-144) was “No” and the “In vivo efficacy (SA)” value (NC-H1975) was “Yes”. The “In vivo efficacy (SA)” value (HT-29) was “Yes”, the “In vivo efficacy (SA)” value (MDA-MB453) was “No” and the “In vivo efficacy (SA)” value (BxPC3) was “Yes”. The “In vivo efficacy (SA)” value (ZR75-1) was “No”, the “In vivo efficacy (SA)” value (MCF-7) was “No” and the “In vivo efficacy (SA)” value (BT474) was “No”. For the same substance, the “In vivo efficacy (SA)” value (Calu-3) was “Yes”, the “In vivo efficacy (SA)” value (MKN-45) was “Yes” and the “In vivo efficacy (SA)” value (Sum225) was “No”. For the same substance, the “In vivo efficacy (SA)” value (FaDu) was “Yes”, the “In vivo efficacy (SA)” value (A549) was “Yes” and the “In vivo efficacy (SA)” value (NCI-H441) was “No”. The “efficacy on HER3 phosphorylation” value ([4]; BT474+HRG (exogenously added heregulin)) was “could be overcome by exogenously added heregulin”, the “efficacy on basal HER3 phosphorylation” value ([4]; BT474 basal, do not express heregulin) was “no efficacy” and the “ligand-dependent basal HER3 phosphorylation” value ([4]; Western blots) was “can block”. The “OS: Subjects (%) with events” value (Stage IIIb/IV NSCLC [5]; [7]) was 46 (64.8%) subjects (%), the “OS: Subjects (%) without events (censored)” value (Stage IIIb/IV NSCLC [5]; [7]) was 25 (35.2%) subjects (%) and the “PFS: Subjects (%) with events” value (Stage IIIb/IV NSCLC [5]; [7]) was 52 (73.2%) subjects (%). The “PFS: Subjects (%) without events (censored)” value (Stage IIIb/IV NSCLC [5]; [7]) was 19 (26.8%) subjects (%), the “Progression-Free Survival, Time to event, Median” value (Stage IIIb/IV NSCLC [5]; [7]) was 2.5 months and the “Overall Survival, Time to event, Median” value (Stage IIIb/IV NSCLC [5]; [7]) was 6.3 months. For the same substance, the “On-Study Death” value (Stage IIIb/IV NSCLC [5]; [8]) was 9 subjects, the “Primary Cause of On-Study Death: Adverse Event” value (Stage IIIb/IV NSCLC [5]; [8]) was 4 subjects and the “Primary Cause of On-Study Death: Disease Progression” value (Stage IIIb/IV NSCLC [5]; [8]) was 4 subjects. The “Primary Reason for Discontinuing Study Treatment: Adverse Event” value (Stage IIIb/IV NSCLC [5]; [8]) was 6 subjects, the “Primary Reason for Discontinuing Study Treatment: Death” value (Stage IIIb/IV NSCLC [5]; [8]) was 2 subjects and the “Primary Reason for Discontinuing Study Treatment: Progressive Disease (Radiographic Progression)” value (Stage IIIb/IV NSCLC [5]; [8]) was 45 subjects. For the same substance, the “OS: Subjects (%) with events” value (Stage IIIb/IV NSCLC [5]; [9]) was 54 (77.1%) subjects (%), the “OS: Subjects (%) without events (censored)” value (Stage IIIb/IV NSCLC [5]; [9]) was 16 (22.9%) subjects (%) and the “PFS: Subjects (%) with events” value (Stage IIIb/IV NSCLC [5]; [9]) was 58 (82.9%) subjects (%). The “PFS: Subjects (%) without events (censored)” value (Stage IIIb/IV NSCLC [5]; [9]) was 12 (17.1%) subjects (%), the “Progression-Free Survival, Time to event, Median” value (Stage IIIb/IV NSCLC [5]; [9]) was 1.4 months and the “Overall Survival, Time to event, Median” value (Stage IIIb/IV NSCLC [5]; [9]) was 5.3 months. For the same substance, the “On-Study Death” value (Stage IIIb/IV NSCLC [5]; [10]) was 20 subjects, the “Primary Cause of On-Study Death: Adverse Event” value (Stage IIIb/IV NSCLC [5]; [10]) was 11 subjects and the “Primary Cause of On-Study Death: Disease Progression” value (Stage IIIb/IV NSCLC [5]; [10]) was 8 subjects. The “Primary Reason for Discontinuing Study Treatment: Adverse Event” value (Stage IIIb/IV NSCLC [5]; [10]) was 7 subjects, the “Primary Reason for Discontinuing Study Treatment: Death” value (Stage IIIb/IV NSCLC [5]; [10]) was 11 subjects and the “Primary Reason for Discontinuing Study Treatment: Progressive Disease (Radiographic Progression)” value (Stage IIIb/IV NSCLC [5]; [10]) was 42 subjects. The “number of subjects with the response being CR/PR” value (Stage IIIb/IV NSCLC [5]; high-dose patritumab (18 mg/kg every 3 weeks) + erlotinib) was 5 (7.1%) subjects (%), the “number of subjects with the response being CR/PR” value (Stage IIIb/IV NSCLC [5]; low-dose patritumab (18 mg/kg loading, 9 mg/kg maintenance every 3 weeks) + erlotinib) was 9 (12.9%) subjects (%) and the “improvement in PFS or OS” value (Stage IIIb/IV NSCLC [5]; patritumab with erlotinib compared to erlotinib plus placebo, full analysis set (unselected ITT population)) was “no significant improvement”. The “HR for PFS (pooled dose vs placebo)” value (Stage IIIb/IV NSCLC [5]; HRG protein concentration cut-off 0 (median) pg/mL, n 66) was 0.58, the “HR for PFS (pooled dose vs placebo)” value (Stage IIIb/IV NSCLC [5]; HRG protein concentration cut-off 1622.5 pg/mL, n 39) was 0.31 and the “HR for PFS (pooled dose vs placebo)” value (Stage IIIb/IV NSCLC [5]; HRG protein concentration cut-off 2000 pg/mL, n 34) was 0.28. The “HR for PFS (pooled dose vs placebo)” value (Stage IIIb/IV NSCLC [5]; HRG protein concentration cut-off 3000 pg/mL, n 30) was 0.24, the “HR for PFS (pooled dose vs placebo)” value (Stage IIIb/IV NSCLC [5]; HRG protein concentration cut-off 4000 pg/mL, n 27) was 0.26 and the “HR for PFS (pooled dose vs placebo)” value (Stage IIIb/IV NSCLC [5]; HRG protein concentration cut-off 5000 pg/mL, n 23) was 0.40. For the same substance, the “HR for PFS (pooled dose vs placebo)” value (Stage IIIb/IV NSCLC [5]; HRG protein concentration cut-off 980 (Q3) pg/mL, n 46) was 0.41, the “treatment difference in PFS and OS” value (Stage IIIb/IV NSCLC [5]; subjects with tumors expressing low HRG at a protein level (<980 pg/mL), pooled patritumab + erlotinib vs placebo + erlotinib) was “no clear treatment difference” and the maximum tolerated dose ([6]; Phase 1 study) was “not reached”. For the same substance, the dose limiting toxicity ([6]; in vivo) was “lack of dose limiting toxicity”.
